{
  "source": "paper PMC5218480",
  "about": "(PLoS ONE, 2017)",
  "test_system": "MV-4-11 cells",
  "experiment": "Gene expression microarray analysis (Affymetrix PrimeView) and GSEA",
  "format": "cell-based, human",
  "design": "RFU PODN (11730768_x_at) / Fold change /veh PODN (11730768_x_at) / RFU LINC00158 (11744669_a_at) / Fold change /veh LINC00158 (11744669_a_at) / RFU DUSP10 (11751237_a_at) / Fold change /veh DUSP10 (11751237_a_at) / RFU ID3 (11757404_x_at) / Fold change /veh ID3 (11757404_x_at) / RFU PLEKHG5 (11737974_s_at) / Fold change /veh PLEKHG5 (11737974_s_at) / RFU LRRC4B (11730491_at) / Fold change /veh LRRC4B (11730491_at) / RFU GIMAP4 (11747438_a_at) / Fold change /veh GIMAP4 (11747438_a_at) / RFU KRT8 (11758183_x_at) / Fold change /veh KRT8 (11758183_x_at) / RFU CNN1 (11734310_a_at) / Fold change /veh CNN1 (11734310_a_at) / RFU VPS37D (11726825_at) / Fold change /veh VPS37D (11726825_at) / RFU C10orf10 (11716522_x_at) / Fold change /veh C10orf10 (11716522_x_at) / RFU KIR2DL2 /// KIR2DL4 /// KIR2DL5A /// KIR2DL5B /// KIR2DS1 /// KIR2DS2 /// KIR2DS3 /// KIR2DS4 /// KIR3DL3 /// KIR3DL3 /// KIR3DS1 (11738374_at) / Fold change /veh KIR2DL2 /// KIR2DL4 /// KIR2DL5A /// KIR2DL5B /// KIR2DS1 /// KIR2DS2 /// KIR2DS3 /// KIR2DS4 /// KIR3DL3 /// KIR3DL3 /// KIR3DS1 (11738374_at) / RFU C1QL1 (11718748_at) / Fold change /veh C1QL1 (11718748_at) / RFU TMPRSS4 (11747572_a_at) / Fold change /veh TMPRSS4 (11747572_a_at) / RFU HAMP (11756126_x_at) / Fold change /veh HAMP (11756126_x_at) / RFU RNFT2 (11725882_a_at) / Fold change /veh RNFT2 (11725882_a_at) / RFU NR4A2 (11747474_a_at) / Fold change /veh NR4A2 (11747474_a_at) / RFU ABCC12 (11746883_a_at) / Fold change /veh ABCC12 (11746883_a_at) / RFU TMEM136 (11760407_x_at) / Fold change /veh TMEM136 (11760407_x_at) / RFU CLDN22 /// WWC2 (11732394_at) / Fold change /veh CLDN22 /// WWC2 (11732394_at) / RFU HLA-DPB1 (11760878_x_at) / Fold change /veh HLA-DPB1 (11760878_x_at) / RFU SPINT1 (11716480_a_at) / Fold change /veh SPINT1 (11716480_a_at) / RFU GAP43 (11754022_s_at) / Fold change /veh GAP43 (11754022_s_at) / RFU A4GNT (11735810_at) / Fold change /veh A4GNT (11735810_at) / RFU PRB3 (11715151_x_at) / Fold change /veh PRB3 (11715151_x_at) / RFU TUBB4B (11761932_at) / Fold change /veh TUBB4B (11761932_at) / RFU CAPN14 (11732068_a_at) / Fold change /veh CAPN14 (11732068_a_at) / RFU TMCC2 (11721928_a_at) / Fold change /veh TMCC2 (11721928_a_at) / RFU IRGQ (11745062_a_at) / Fold change /veh IRGQ (11745062_a_at) / RFU FAM174B (11720279_a_at) / Fold change /veh FAM174B (11720279_a_at) / RFU TMPRSS4 (11748680_a_at) / Fold change /veh TMPRSS4 (11748680_a_at) / RFU FAM212B (11763350_a_at) / Fold change /veh FAM212B (11763350_a_at) / RFU PLEKHG5 (11743358_a_at) / Fold change /veh PLEKHG5 (11743358_a_at) / RFU ZSCAN30 (11745921_a_at) / Fold change /veh ZSCAN30 (11745921_a_at) / RFU CMKLR1 (11741424_a_at) / Fold change /veh CMKLR1 (11741424_a_at) / RFU LOC101060620 /// MAPK8IP1 (11723275_at) / Fold change /veh LOC101060620 /// MAPK8IP1 (11723275_at) / RFU SPTSSB (11747773_x_at) / Fold change /veh SPTSSB (11747773_x_at) / RFU PRSS12 (11739890_at) / Fold change /veh PRSS12 (11739890_at) / RFU BIN1 (11741810_x_at) / Fold change /veh BIN1 (11741810_x_at) / RFU WNT11 (11732464_a_at) / Fold change /veh WNT11 (11732464_a_at) / RFU C10orf10 (11716521_a_at) / Fold change /veh C10orf10 (11716521_a_at) / RFU C5orf56 (11738089_at) / Fold change /veh C5orf56 (11738089_at) / RFU CYB561 (11721691_x_at) / Fold change /veh CYB561 (11721691_x_at) / RFU ANKRD19P (11752326_a_at) / Fold change /veh ANKRD19P (11752326_a_at) / RFU OR2T12 /// OR2T33 /// OR2T8 (11738714_s_at) / Fold change /veh OR2T12 /// OR2T33 /// OR2T8 (11738714_s_at) / RFU VCAN (11748164_a_at) / Fold change /veh VCAN (11748164_a_at) / RFU JSRP1 (11732532_at) / Fold change /veh JSRP1 (11732532_at) / RFU KRTAP10-11 (11738290_x_at) / Fold change /veh KRTAP10-11 (11738290_x_at) / RFU MYO3A (11730013_a_at) / Fold change /veh MYO3A (11730013_a_at) / RFU EBF3 (11725865_a_at) / Fold change /veh EBF3 (11725865_a_at) / RFU CAMK2N1 (11719241_x_at) / Fold change /veh CAMK2N1 (11719241_x_at) / RFU C5orf56 (11738088_a_at) / Fold change /veh C5orf56 (11738088_a_at) / RFU OLFML3 (11715873_a_at) / Fold change /veh OLFML3 (11715873_a_at) / RFU LOC100653217 /// NTM (11731650_a_at) / Fold change /veh LOC100653217 /// NTM (11731650_a_at) / RFU MAPK11 (11762145_a_at) / Fold change /veh MAPK11 (11762145_a_at) / RFU FIZ1 (11724087_x_at) / Fold change /veh FIZ1 (11724087_x_at) / RFU OASL (11726364_x_at) / Fold change /veh OASL (11726364_x_at) / RFU SOX15 (11748057_x_at) / Fold change /veh SOX15 (11748057_x_at) / RFU CD79A (11719716_a_at) / Fold change /veh CD79A (11719716_a_at) / RFU HIST1H1D (11736915_at) / Fold change /veh HIST1H1D (11736915_at) / RFU CASKIN2 (11723855_a_at) / Fold change /veh CASKIN2 (11723855_a_at) / RFU LOC730098 (11760151_x_at) / Fold change /veh LOC730098 (11760151_x_at) / RFU OR4N2 (11742367_at) / Fold change /veh OR4N2 (11742367_at) / RFU PRRT2 (11749266_a_at) / Fold change /veh PRRT2 (11749266_a_at) / RFU SNX32 (11753110_a_at) / Fold change /veh SNX32 (11753110_a_at) / RFU CDHR5 (11726645_a_at) / Fold change /veh CDHR5 (11726645_a_at) / RFU RCAN1 (11760418_a_at) / Fold change /veh RCAN1 (11760418_a_at) / RFU FAM167A (11723789_a_at) / Fold change /veh FAM167A (11723789_a_at) / RFU FAM26E (11764081_at) / Fold change /veh FAM26E (11764081_at) / RFU ISYNA1 (11749810_s_at) / Fold change /veh ISYNA1 (11749810_s_at) / RFU ACY1 (11761880_at) / Fold change /veh ACY1 (11761880_at) / RFU 11764098_at / Fold change /veh 11764098_at / RFU SAMD14 (11745864_x_at) / Fold change /veh SAMD14 (11745864_x_at) / RFU NPB (11741838_a_at) / Fold change /veh NPB (11741838_a_at) / RFU TMPRSS6 (11731388_a_at) / Fold change /veh TMPRSS6 (11731388_a_at) / RFU KRTAP10-2 (11738614_at) / Fold change /veh KRTAP10-2 (11738614_at) / RFU ARHGAP8 /// PRR5-ARHGAP8 (11727945_x_at) / Fold change /veh ARHGAP8 /// PRR5-ARHGAP8 (11727945_x_at) / RFU KRTAP5-7 /// NADSYN1 (11734609_at) / Fold change /veh KRTAP5-7 /// NADSYN1 (11734609_at) / RFU RASL12 (11751679_a_at) / Fold change /veh RASL12 (11751679_a_at) / RFU CDKN2B (11736163_a_at) / Fold change /veh CDKN2B (11736163_a_at) / RFU PRF1 (11729649_at) / Fold change /veh PRF1 (11729649_at) / RFU, ZNF638 /// ZNF638-IT1 / Fold change vs veh, ZNF638 /// ZNF638-IT1 / RFU, PANK3 / Fold change vs veh, PANK3 / RFU, SH3YL1 / Fold change vs veh, SH3YL1 / RFU, ZEB2 / Fold change vs veh, ZEB2 / RFU, NRIP1 / Fold change vs veh, NRIP1 / RFU, PTTG1IP / Fold change vs veh, PTTG1IP / RFU, CAPN2 / Fold change vs veh, CAPN2 / RFU, MED14 / Fold change vs veh, MED14 / RFU, SNORA58 / Fold change vs veh, SNORA58 / RFU, C1orf63 / Fold change vs veh, C1orf63 / RFU, LRRFIP1 / Fold change vs veh, LRRFIP1 / RFU, NDUFAF7 / Fold change vs veh, NDUFAF7 / RFU, SLC12A2 / Fold change vs veh, SLC12A2 / RFU, IBTK / Fold change vs veh, IBTK / RFU, ESF1 / Fold change vs veh, ESF1 / Fold change vs veh, TMEM50B / RFU, TAOK1 / Fold change vs veh, TAOK1 / RFU, ACBD3 / Fold change vs veh, ACBD3 / RFU, TMA16 / Fold change vs veh, TMA16 / RFU, RWDD3 / Fold change vs veh, RWDD3 / RFU, BCAT1 / Fold change vs veh, BCAT1 / RFU, EDEM3 / Fold change vs veh, EDEM3 / RFU, TMEM33 / Fold change vs veh, TMEM33 / RFU, WDR75 / Fold change vs veh, WDR75 / RFU, AHCTF1 / Fold change vs veh, AHCTF1 / RFU, TFRC / Fold change vs veh, TFRC / RFU, ZDHHC17 / Fold change vs veh, ZDHHC17 / RFU, NOM1 / Fold change vs veh, NOM1 / RFU, ARL8B / Fold change vs veh, ARL8B / RFU, ZBTB11 / Fold change vs veh, ZBTB11 / RFU, TAMM41 / Fold change vs veh, TAMM41 / RFU, KIAA1704 /// LOC100996395 / Fold change vs veh, KIAA1704 /// LOC100996395 / RFU, ING1 / Fold change vs veh, ING1 / RFU, TRMT61B / Fold change vs veh, TRMT61B / RFU, FUBP3 / Fold change vs veh, FUBP3 / RFU, TP53 / Fold change vs veh, TP53 / RFU, TNKS2 / Fold change vs veh, TNKS2 / RFU, ZFP14 / Fold change vs veh, ZFP14 / RFU, ACTR2 / Fold change vs veh, ACTR2 / RFU, PPP3R1 / Fold change vs veh, PPP3R1 / RFU, PIK3R1 / Fold change vs veh, PIK3R1 / RFU, HNRNPA1 / Fold change vs veh, HNRNPA1 / RFU, RNF170 / Fold change vs veh, RNF170 / RFU, ZNF28 / Fold change vs veh, ZNF28 / RFU, RNGTT / Fold change vs veh, RNGTT / RFU, OGT / Fold change vs veh, OGT / RFU, BRD1 / Fold change vs veh, BRD1 / RFU, MARS / Fold change vs veh, MARS / RFU, ZNF655 / Fold change vs veh, ZNF655 / RFU, FAHD1 / Fold change vs veh, FAHD1 / RFU, BDP1 / Fold change vs veh, BDP1 / RFU, LRRCC1 / Fold change vs veh, LRRCC1 / RFU, ARID1A / Fold change vs veh, ARID1A / RFU, ZNF146 / Fold change vs veh, ZNF146 / RFU, ZNF330 / Fold change vs veh, ZNF330 / RFU, GPN3 / Fold change vs veh, GPN3 / RFU, C9orf123 / Fold change vs veh, C9orf123 / RFU, N4BP2L2 / Fold change vs veh, N4BP2L2 / RFU, ARFIP1 / Fold change vs veh, ARFIP1 / RFU, FAM179B / Fold change vs veh, FAM179B / RFU, BCL10 / Fold change vs veh, BCL10 / RFU, UHRF1BP1L / Fold change vs veh, UHRF1BP1L / RFU, BET1 / Fold change vs veh, BET1 / RFU, CNOT2 / Fold change vs veh, CNOT2 / RFU, ZNF268 / Fold change vs veh, ZNF268 / Fold change vs veh, ZNF507 / RFU, DGCR2 / Fold change vs veh, DGCR2 / RFU, WDSUB1 / Fold change vs veh, WDSUB1 / Fold change vs veh, HSP90B1 /// MIR3652 / RFU, ADSS / Fold change vs veh, ADSS / RFU, GK / Fold change vs veh, GK / RFU, ZNF148 / Fold change vs veh, ZNF148 / RFU, TAF9 / Fold change vs veh, TAF9 / RFU, SLC1A5 / Fold change vs veh, SLC1A5 / RFU, SLMO2 / Fold change vs veh, SLMO2 / RFU, ABCC4 / Fold change vs veh, ABCC4 / RFU, LOC101060439 /// RAP1B / Fold change vs veh, LOC101060439 /// RAP1B / RFU, RFX7 / Fold change vs veh, RFX7 / RFU, GTPBP10 / Fold change vs veh, GTPBP10 / RFU, CNEP1R1 / Fold change vs veh, CNEP1R1 / RFU, BIVM-ERCC5 /// ERCC5 / Fold change vs veh, BIVM-ERCC5 /// ERCC5 / RFU, ILF3 / Fold change vs veh, ILF3 / RFU 11762660_at / Fold change /veh 11762660_at / RFU VCAN (11757783_s_at) / Fold change /veh VCAN (11757783_s_at) / RFU DDX43 (11728927_at) / Fold change /veh DDX43 (11728927_at) / RFU KRT8 (11758188_x_at) / Fold change /veh KRT8 (11758188_x_at) / RFU NKD1 (11759106_at) / Fold change /veh NKD1 (11759106_at) / RFU SRD5A1 (11742802_a_at) / Fold change /veh SRD5A1 (11742802_a_at) / RFU TPSAB1 /// TPSB2 (11721975_s_at) / Fold change /veh TPSAB1 /// TPSB2 (11721975_s_at) / RFU GSTM3 (11746129_a_at) / Fold change /veh GSTM3 (11746129_a_at) / RFU IL23R (11737362_x_at) / Fold change /veh IL23R (11737362_x_at) / RFU TMEM51 (11727254_a_at) / Fold change /veh TMEM51 (11727254_a_at) / RFU PIWIL2 (11732686_x_at) / Fold change /veh PIWIL2 (11732686_x_at) / RFU ORM1 (11744905_x_at) / Fold change /veh ORM1 (11744905_x_at) / RFU CCDC152 (11743942_at) / Fold change /veh CCDC152 (11743942_at) / RFU ECM1 (11717891_a_at) / Fold change /veh ECM1 (11717891_a_at) / RFU IL23R (11748794_a_at) / Fold change /veh IL23R (11748794_a_at) / RFU TNFAIP8L3 (11732012_x_at) / Fold change /veh TNFAIP8L3 (11732012_x_at) / RFU MBOAT4 (11741988_at) / Fold change /veh MBOAT4 (11741988_at) / RFU 11764193_at / Fold change /veh 11764193_at / RFU TMEM53 (11763286_at) / Fold change /veh TMEM53 (11763286_at) / RFU MAGEB2 (11727129_at) / Fold change /veh MAGEB2 (11727129_at) / RFU TMEM200A (11744735_a_at) / Fold change /veh TMEM200A (11744735_a_at) / RFU CCDC152 (11751479_a_at) / Fold change /veh CCDC152 (11751479_a_at) / RFU FAM211A (11726209_a_at) / Fold change /veh FAM211A (11726209_a_at) / RFU RGS16 (11746705_a_at) / Fold change /veh RGS16 (11746705_a_at) / RFU VCAN (11755009_s_at) / Fold change /veh VCAN (11755009_s_at) / RFU RHOB (11743442_s_at) / Fold change /veh RHOB (11743442_s_at) / RFU RGS16 (11720943_a_at) / Fold change /veh RGS16 (11720943_a_at) / RFU RGS16 (11720944_at) / Fold change /veh RGS16 (11720944_at) / RFU, VPS4B / Fold change vs veh, VPS4B / RFU, CREB1 / Fold change vs veh, CREB1 / RFU, DNAJC13 / Fold change vs veh, DNAJC13 / RFU, GNAQ / Fold change vs veh, GNAQ / RFU, CDK5R1 / Fold change vs veh, CDK5R1 / RFU, ZRANB3 / Fold change vs veh, ZRANB3 / RFU, CUL4A / Fold change vs veh, CUL4A / RFU, CCNY / Fold change vs veh, CCNY / RFU, UFL1 / Fold change vs veh, UFL1 / RFU, COG3 / Fold change vs veh, COG3 / RFU, DIAPH2 / Fold change vs veh, DIAPH2 / RFU, SKA2 / Fold change vs veh, SKA2 / RFU, AFF3 / Fold change vs veh, AFF3 / RFU, LMF1 / Fold change vs veh, LMF1 / RFU, IPO11 / Fold change vs veh, IPO11 / RFU, DFFB / Fold change vs veh, DFFB / RFU, FOXP1 / Fold change vs veh, FOXP1 / RFU, CARD8 / Fold change vs veh, CARD8 / RFU, STRN3 / Fold change vs veh, STRN3 / RFU, ADK / Fold change vs veh, ADK / RFU, RASSF2 / Fold change vs veh, RASSF2 / RFU, WIPF1 / Fold change vs veh, WIPF1 / RFU, LARP1B / Fold change vs veh, LARP1B / RFU, RASA1 / Fold change vs veh, RASA1 / RFU, RB1 / Fold change vs veh, RB1 / RFU, PPFIA1 / Fold change vs veh, PPFIA1 / RFU, MAT2A / Fold change vs veh, MAT2A / RFU, CCT5 / Fold change vs veh, CCT5 / RFU, WDR92 / Fold change vs veh, WDR92 / RFU, CUX1 / Fold change vs veh, CUX1 / RFU, TTC7A / Fold change vs veh, TTC7A / RFU, TMEM135 / Fold change vs veh, TMEM135 / RFU, DEPTOR / Fold change vs veh, DEPTOR / RFU, CPM / Fold change vs veh, CPM / RFU, DNAJB6 / Fold change vs veh, DNAJB6 / RFU, CACNA2D3 / Fold change vs veh, CACNA2D3 / RFU, DTX4 / Fold change vs veh, DTX4 / RFU, TFCP2 / Fold change vs veh, TFCP2 / RFU, GMCL1 /// GMCL1P1 / Fold change vs veh, GMCL1 /// GMCL1P1 / RFU, AEBP2 / Fold change vs veh, AEBP2 / RFU, SNHG1 /// SNORD22 /// SNORD25 /// SNORD26 /// SNORD27 /// SNORD28 /// SNORD29 /// SNORD31 / Fold change vs veh, SNHG1 /// SNORD22 /// SNORD25 /// SNORD26 /// SNORD27 /// SNORD28 /// SNORD29 /// SNORD31 / Fold change (Aza/veh), C12orf56 (ProbeSet 11735607_a_at) / Fold change (ACY-1035/veh), C12orf56 (ProbeSet 11735607_a_at) / Fold change (Aza/veh), FGFR1OP (ProbeSet 11751329_s_at) / Fold change (ACY-1035/veh), FGFR1OP (ProbeSet 11751329_s_at) / Fold change (Aza/veh), VPS36 (ProbeSet 11739960_a_at) / Fold change (ACY-1035/veh), VPS36 (ProbeSet 11739960_a_at) / RFU SYPL1 (11715823_x_at) / Fold change /veh SYPL1 (11715823_x_at) / RFU IGFBP7 (11715501_s_at) / Fold change /veh IGFBP7 (11715501_s_at) / RFU REEP3 (11722064_at) / Fold change /veh REEP3 (11722064_at) / RFU IGLL1 (11728026_x_at) / Fold change /veh IGLL1 (11728026_x_at): dose or concentration left out as unconfirmed",
  "conditions": "ProbeSet 11720269_a_at; LIST B",
  "data": [
    {"smiles": "Nc1ccc(-c2cccs2)cc1NC(=O)c1ccc2c(c1)cc(C1CC1)n2CCN1CCOCC1", "note": "[ACY-1035]", "values": [
      {"measurement": "Fold change vs veh, IBTK", "result": 0.93}
    ]}
  ]
}
